In patent US7629318B2, “Immunosuppressant compounds, methods and uses related thereto” (priority 2002, dated 2009):
Where “and” joins values, the source holds several entries; their conditions need not be identical. Equal entries are not always repeated. Numbered stars: 1 amine (or outer) side, 2 acyl side, 3 side chain; on linkers, the order of the positions; unused ones are H or OH. Square brackets hold non-standard residues; d marks the D form. Peptide text beside a SMILES is read from it. ξ: configuration not given here. Gly(1-amidinopiperidin-4-yl) = N=C(N)N1CCC([C@H](N)C(=O)O)CC1; X1 = CC(C)c1oc([C@H](CO)N[*:1])nc1C(=O)[*:2]; Pro(3R-Ph) = O=C(O)[C@H]1NCC[C@@H]1c1ccccc1; Met(O) = CS(=O)CC[C@H](N)C(=O)O; Tic = O=C(O)[C@@H]1Cc2ccccc2CN1; Cha = N[C@@H](CC1CCCCC1)C(=O)O; ξDisc = O=C(O)C1NCc2ccccc21

Columns and labels:
[1] = molecular target: DR4Dw4 (DRA1*0101 DRB1*0401) (Homo sapiens, UniProt P01903+P01911, A100K/A169T/F76Y/I96L/K127E/L162R/M171V/N62H/P40V/Q125Y/R42H/S133A/S149N/S66Y/V115G/V209L/W38E); assay: Competitive binding to MHC-II protein DR4Dw4
Outline: (§1)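 Each MHC-II allele incubated with compound 16 hours at room temperature in duplicate; controls lacked compound, or both compound and MHC-II. Complexes captured 2 h at 4 °C, bound biotinylated peptide detected via europium-streptavidin and DELFIA enhancement, time-resolved fluorescence read at ex 340/em 613 (615) nm.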

[2] = molecular target: DR1 (DRA1*0101 DRB1*0101) (Homo sapiens, UniProt P01903+P01911, A100R/D57E/F55L/F60I/F76Y/I96L/L162R/M171V/P40L/Q125E/R42F/V115G/Y59C); assay: Competitive binding to MHC-II protein DR1; conditions: Protein binding IC50 (nM) 0101, 0101
Outline: as §1

[3] = molecular target: DR4Dw14 (DRA1*0101 DRB1*0404) (Homo sapiens, UniProt P01903+P01911, A100R/A169T/F76Y/I96L/K127E/L162R/M171V/N62H/P40V/Q125Y/R42H/S133A/S149N/S66Y/V209L/W38E); assay: Competitive binding to MHC-II protein DR4Dw14; conditions: 0404; read-out: Protein binding IC50 (nM) 0404
Outline: as §1

[4] = molecular target: T1, Priess (DR4Dw4: DRA1*0101 DRB1*0401) cells (Homo sapiens, UniProt P01903+P01911, A100K/A169T/F76Y/I96L/K127E/L162R/M171V/N62H/P40V/Q125Y/R42H/S133A/S149N/S66Y/V115G/V209L/W38E); assay: Competitive binding to MHC II proteins expressed on Priess cells; format: cell-based
T1 construct: MHC II Proteins Expressed on PRIESS and LG2 Cells; endogenous in cells; host or cells: Priess cells
Experimental: (§2) For use in the binding assay the cells were re-suspended in medium containing 1% FCS at a density of 2.5×10^6 cells/ml.
(§3) The assay was performed in sterile 96 well polystyrene microtiter plates. A 10 fold dilution series of compounds (16 nM-1615 μM) in 1% FCS was prepared from 5 or 10 mM compound stock solutions in 10% DMSO/water. 50 μl of each compound dilution were added in duplicates to 50 μl of a 16 μM solution of indicator peptide in 1% FCS. Cell binding was initiated by adding 100 μl of 2.5×10^6 cells/ml 1% FCS to each well. Controls were included containing the DMSO concentration present in the solution with the highest compound concentration. The cells were incubated at 37° C., 6% CO2. After 4 hours the cells were washed with 200 μl PBS and lysed in 200 μl lysis buffer (50 mM sodium phosphate, 150 mM sodium chloride, 1% (w/v) NP-40, 25 mM iodoacetamide, 1 mM PMSF, 3.1% protease inhibitor cocktail: 0.32 g/l of Chymostatin, Antipain, Pepstatin A, Soybean trypsin inhibitor and Leupeptin each, pH 7.5) for 10 min.
(§4) After washing with PBS, 190 μl of cell lysate were transferred to the appropriate wells of the capture plate and incubated for 2 h at 4° C. The wells were washed six times with 200 μl/well cooled (4 to 8° C.) of 1×DELFIA wash (Wallac-ADL-GmbH, Freiburg), incubated with 100 μl of cooled Europium-streptavidin conjugate (Wallac-ADL-GmbH, Freiburg; diluted 1/1000 with DELFIA assay buffer) for 30 minutes at 4° C., again washed six times with cooled 1×DELFIA wash and, finally, incubated with 200 μl cooled DELFIA enhancement solution (Wallac-ADL-GmbH, Freiburg) for one hour at room temperature before reading the time-resolved europium fluorescence at λex Eu^3+: 340 nm and λem Eu^3+: 613 (615) nm (Wallac Victor^2 1420 Multilabel Counter, Wallac-ADL-GmbH, Freiburg).

[5] = molecular target: T2, LG2 (DR1: DRA1*0101 DRB1*0101) cells (Homo sapiens, UniProt P01903+P01911, A100R/D57E/F55L/F60I/F76Y/I96L/L162R/M171V/P40L/Q125E/R42F/V115G/Y59C); assay: Competitive binding to MHC II proteins expressed on LG2 cells; format: cell-based; conditions: Cell binding IC50 (uM) LG2 (0101), LG2 (0101)
T2 construct: MHC II Proteins Expressed on PRIESS and LG2 Cells; endogenous in cells; host or cells: LG2 cells
Experimental: as §2, §3, §4

[6] = Stability of compounds in rat blood plasma; format: in vitro ADME
Outline: (§5)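 Compounds at 5 μM final in rat, mouse or human plasma, incubated at 37 °C and sampled at 0, 6 and 24 h. Proteins precipitated with acetonitrile and the supernatant dried and reconstituted in 50% acetonitrile/0.1% TFA. PBS controls run for unstable compounds.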

[7] = Stability of compounds in human blood plasma; format: in vitro ADME
Outline: as §5

[8] = molecular target: Cathepsin D (EC 3.4.23.5 from bovine spleen) (Bos taurus, UniProt P80209)
Experimental: The stability of the peptidomimetic compounds towards lysosomal degradation was examined by incubation with Cathepsin B1 (EC 3.4.22.1 from bovine spleen; Sigma-Aldrich, Taufkirchen; dissolved at 10000 U/l in ddH2O) and D (EC 3.4.23.5 from bovine spleen; Sigma-Aldrich, Taufkirchen; dissolved at 10000 U/l in ddH2O) for four hours at 37° C. using a compound concentration of 50 μM and an enzyme/substrate ratio of 0.4 U/μmol. The samples contained 25 ppm 4-isopropyl benzyl alcohol (IPBA; Sigma-Aldrich, Taufkirchen) as internal standard.
Assay buffer was prepared by adding 35 μl of a 1% IPBA in DMSO solution and 28 μl of a 10000 U/l Cathepsin B1 or Cathepsin D stock solution to 14 ml of 100 mM sodium acetate, 1 mM EDTA, 1 mM DTT, pH 5.00 or 100 mM sodium acetate, pH 4.50, respectively. 8.8 μl of a 5 mM (or 4.4 μl of a 10 mM) compound stock solution (in 10% DMSO/water) were placed into a 1.5 ml Eppendorf tube. The reaction was started by adding 875 μl fully supplemented assay buffer to each tube, whirlmixing and incubation at 37° C. At 0 and 4 hours 400 μl samples were taken and the enzyme was inactivated by addition of 40 μl […] TFA aq. The samples were kept frozen at −20° C. until analysis by RP-HPLC (200 μl injection volume; Nucleosil 100-5 C18, 12.5×4.6 cm; Gradient: 20-50% acetonitrile in 30 min).
Compounds co-eluting with the internal standard during RP-HPLC analysis were tested without the standard as Example 16.

[9] = molecular target: Cathepsin B1 (EC 3.4.22.1 from bovine spleen) (Bos taurus, UniProt P07688); conditions: Cathepsin B, 4 h
[10] = Stability of compounds in mouse blood plasma; format: in vitro ADME
Outline: as §5

[11] = system: T-cell proliferation, DR14-LN

## CSCC[C@H](NC(=O)C1c2ccccc2CN1C(=O)[C@H](CCCNC(=N)N)NC(=O)[C@H](CC1CCCCC1)NC(C)=O)C(=O)N1CC[C@H](c2ccccc2)[C@H]1C(=O)N[C@@H](CO)c1nc(C(=O)N(C)C)c(C(C)C)o1 (stereo partly drawn) [Compound P40-1, Ac-Cha-Arg-Disc-Met-βPhPro-[S(oxaz)L]NMe2] (Ac-[Cha]R[ξDisc]M[Pro(3R-Ph)][X1]-NMe2)
[1]
  IC50: 270 nM
[2]
  IC50: 140 nM
[3]
  IC50: 98 nM
[4]
  IC50: 3000 nM
[5]
  IC50: 8 µM
[6]
  Stability (Arbitrary units) Rat 6 h: 111 Arbitrary units
  Stability (Arbitrary units) Rat 24 h: 71 Arbitrary units
[7]
  Stability (Arbitrary units) Human 6 h: 108 Arbitrary units
  Stability (Arbitrary units) Human 24 h: 103 Arbitrary units
[8]
  Stability (Arbitrary units) Cath D 4 h: 93 Arbitrary units
[9]
  Stability (Arbitrary units) Cath B 4 h: 99 Arbitrary units

## CC(=O)N[C@@H](CC1CCCCC1)C(=O)N[C@@H](CCCNC(=N)N)C(=O)N1Cc2ccccc2C[C@H]1C(=O)N[C@@H](CC[S+](C)[O-])C(=O)N1CC[C@H](c2ccccc2)[C@H]1C(=O)N[C@@H](CO)c1nc(C(=O)N(C)C)c(C(C)C)o1 (stereo partly drawn) [Compound P43, Ac-Cha-Arg-Tic-Met(O)-βPhPro-[S(oxaz)L]-NMe2] (Ac-[Cha]R[Tic][Met(O)][Pro(3R-Ph)][X1]-NMe2)
[1]
  IC50: 320 nM
[2]
  IC50: 380 nM
[3]
  IC50: 1700 nM
[4]
  IC50: 3100 nM
[5]
  IC50: 13 µM
[6]
  Stability (Arbitrary units) Rat 6 h: 96 Arbitrary units
  Stability (Arbitrary units) Rat 24 h: 71 Arbitrary units
[10]
  Stability (Arbitrary units) Mouse 6 h: 96 Arbitrary units
  Stability (Arbitrary units) Mouse 24 h: 82 Arbitrary units
[7]
  Stability (Arbitrary units) Human 6 h: 134 Arbitrary units
  Stability (Arbitrary units) Human 24 h: 131 Arbitrary units
[8]
  Stability (Arbitrary units) Cath D 4 h: 101 Arbitrary units
[9]
  Stability (Arbitrary units) Cath B 4 h: 96 Arbitrary units

## CSCC[C@H](NC(=O)[C@@H]1Cc2ccccc2CN1C(=O)[C@@H](NC(=O)[C@H](CC1CCCCC1)NC(C)=O)C1CCN(C(=N)N)CC1)C(N)=O [Compound P67, Ac-Cha-Gpg-Tic-Met-NH2] (Ac-[Cha][Gly(1-amidinopiperidin-4-yl)][Tic]M-NH2)
[1]
  IC50: 410 nM
[2]
  IC50: 120 nM
[3]
  IC50: 1060 nM and 1080 nM
[4]
  IC50: 4500 nM
[5]
  IC50: 4.5 µM
[6]
  Stability (Arbitrary units) Rat 6 h: 10 Arbitrary units
  Stability (Arbitrary units) Rat 24 h: 34 Arbitrary units
[10]
  Stability (Arbitrary units) Mouse 6 h: 71 Arbitrary units
  Stability (Arbitrary units) Mouse 24 h: 16 Arbitrary units
[7]
  Stability (Arbitrary units) Human 6 h: 97 Arbitrary units
  Stability (Arbitrary units) Human 24 h: 100 Arbitrary units
[8]
  Stability (Arbitrary units) Cath D 4 h: 113 Arbitrary units
[9]
  Stability (Arbitrary units) Cath B 4 h: 58 Arbitrary units

## CSCC[C@H](NC(=O)[C@@H]1Cc2ccccc2CN1C(=O)[C@@H](NC(=O)[C@H](CC1CCCCC1)NC(C)=O)C1CCN(C(=N)N)CC1)C(=O)N1CC[C@H](c2ccccc2)[C@H]1C(N)=O [Compound P80, Ac-Cha-Gpg-Tic-Met-βPhProNH2] (Ac-[Cha][Gly(1-amidinopiperidin-4-yl)][Tic]M[Pro(3R-Ph)]-NH2)
[1]
  IC50: 670 nM
[2]
  IC50: 550 nM
[3]
  IC50: 470 nM
[4]
  IC50: 2700 nM
[5]
  IC50: 2.7 µM
[6]
  Stability (Arbitrary units) Rat 6 h: 102 Arbitrary units
  Stability (Arbitrary units) Rat 24 h: 39 Arbitrary units
[10]
  Stability (Arbitrary units) Mouse 6 h: 106 Arbitrary units
  Stability (Arbitrary units) Mouse 24 h: 123 Arbitrary units
[7]
  Stability (Arbitrary units) Human 6 h: 139 Arbitrary units
  Stability (Arbitrary units) Human 24 h: 134 Arbitrary units
[8]
  Stability (Arbitrary units) Cath D 4 h: 84 Arbitrary units
[9]
  Stability (Arbitrary units) Cath B 4 h: 90 Arbitrary units
[11]; maximal inhibition
  Immunsupressive assays DR14-LN (Max) % Inhibition: 88%
[11]; read-out: Immunsupressive assays DR14-LN (IC50)
  IC50: 94000 nM
